Measured values taken from PubChem BioAssay (NCI).
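Test compounds were applied to cells in 96-well plates for 48 hours at 5 doses. At the GI50, growth is halved. TGI: total growth inhibition.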

How the values were obtained:
Assay in all cases: inhibition of tumour cell growth, NCI panel, 48 h
SK-MEL-5 melanoma = tested on: SK-MEL-5 melanoma
HCC-2998 colon = tested on: HCC-2998 colon
HCT-116 colon = tested on: HCT-116 colon
UO-31 renal = tested on: UO-31 renal
COLO 205 colon = tested on: COLO 205 colon
SW-620 colon = tested on: SW-620 colon
MDA-MB-231 breast = tested on: MDA-MB-231 breast
OVCAR-3 ovarian = tested on: OVCAR-3 ovarian
786-0 renal = tested on: 786-0 renal
HL-60(TB) leukemia = tested on: HL-60(TB) leukemia
NCI-H23 lung = tested on: NCI-H23 lung
U251 CNS = tested on: U251 CNS
RXF 393 renal = tested on: RXF 393 renal
SK-MEL-28 melanoma = tested on: SK-MEL-28 melanoma
BT-549 breast = tested on: BT-549 breast
OVCAR-5 ovarian = tested on: OVCAR-5 ovarian
UACC-257 melanoma = tested on: UACC-257 melanoma
MOLT-4 leukemia = tested on: MOLT-4 leukemia
MDA-MB-435 = tested on: MDA-MB-435
UACC-62 melanoma = tested on: UACC-62 melanoma
HOP-62 NSCLC = tested on: HOP-62 NSCLC
MALME-3M melanoma = tested on: MALME-3M melanoma
A549 NSCLC = tested on: A549 NSCLC
SN12C renal = tested on: SN12C renal
OVCAR-8 ovarian = tested on: OVCAR-8 ovarian
CCRF-CEM leukemia = tested on: CCRF-CEM leukemia
M14 melanoma = tested on: M14 melanoma
HT29 colon = tested on: HT29 colon
SF-539 CNS = tested on: SF-539 CNS
EKVX NSCLC = tested on: EKVX NSCLC
OVCAR-4 ovarian = tested on: OVCAR-4 ovarian
KM12 colon = tested on: KM12 colon
HCT-15 colon = tested on: HCT-15 colon
SF-295 CNS = tested on: SF-295 CNS
SK-MEL-2 melanoma = tested on: SK-MEL-2 melanoma
SNB-19 CNS = tested on: SNB-19 CNS
A498 renal = tested on: A498 renal
NCI/ADR-RES ovarian = tested on: NCI/ADR-RES ovarian
RPMI-8226 leukemia = tested on: RPMI-8226 leukemia
PC-3 prostate = tested on: PC-3 prostate
HOP-92 NSCLC = tested on: HOP-92 NSCLC
SR leukemia = tested on: SR leukemia
HS 578T breast = tested on: HS 578T breast
NCI-H522 lung = tested on: NCI-H522 lung
NCI-H226 lung = tested on: NCI-H226 lung
TK-10 renal = tested on: TK-10 renal
ACHN renal = tested on: ACHN renal
T-47D breast = tested on: T-47D breast
SNB-75 CNS = tested on: SNB-75 CNS
IGROV1 ovarian = tested on: IGROV1 ovarian
K-562 leukemia = tested on: K-562 leukemia
SF-268 CNS = tested on: SF-268 CNS
SK-OV-3 ovarian = tested on: SK-OV-3 ovarian
NCI-H460 lung = tested on: NCI-H460 lung
LOX IMVI melanoma = tested on: LOX IMVI melanoma
MCF7 breast = tested on: MCF7 breast

Structure (SMILES): CC(C)C[C@H]1C(=O)O[C@H](C(C)C)C(=O)N(C)[C@@H](C(C)C)C(=O)O[C@H](C(C)C)C(=O)N(C)[C@@H](C(C)C)C(=O)O[C@H](C(C)C)C(=O)N1C
- GI50 (SK-MEL-5 melanoma): 1870 nM
- TGI (SK-MEL-5 melanoma): 4.05 µM
- GI50 (HCC-2998 colon): 3.9 µM
- TGI (HCC-2998 colon): > 10 µM
- GI50 (HCT-116 colon): 3.18 µM
- TGI (HCT-116 colon): > 10 µM
- GI50 (UO-31 renal): 1810 nM
- TGI (UO-31 renal): 7.69 µM
- GI50 (COLO 205 colon): 1640 nM
- TGI (COLO 205 colon): 3.29 µM
- GI50 (SW-620 colon): 3.38 µM
- TGI (SW-620 colon): > 10 µM
- GI50 (MDA-MB-231 breast): 2650 nM
- TGI (MDA-MB-231 breast): 8.22 µM
- GI50 (OVCAR-3 ovarian): 2400 nM
- TGI (OVCAR-3 ovarian): > 10 µM
- GI50 (786-0 renal): 3.71 µM
- TGI (786-0 renal): > 10 µM
- GI50 (HL-60(TB) leukemia): 2320 nM
- TGI (HL-60(TB) leukemia): 5.23 µM
- GI50 (NCI-H23 lung): 3.19 µM
- TGI (NCI-H23 lung): > 10 µM
- GI50 (U251 CNS): 3.51 µM
- TGI (U251 CNS): > 10 µM
- GI50 (RXF 393 renal): 3.33 µM
- TGI (RXF 393 renal): > 10 µM
- GI50 (SK-MEL-28 melanoma): 4.23 µM
- TGI (SK-MEL-28 melanoma): > 10 µM
- GI50 (BT-549 breast): 3.43 µM
- TGI (BT-549 breast): > 10 µM
- GI50 (OVCAR-5 ovarian): 2880 nM
- TGI (OVCAR-5 ovarian): > 10 µM
- GI50 (UACC-257 melanoma): 2620 nM
- TGI (UACC-257 melanoma): 8.49 µM
- GI50 (MOLT-4 leukemia): 3.27 µM
- TGI (MOLT-4 leukemia): > 10 µM
- GI50 (MDA-MB-435): 3.46 µM
- TGI (MDA-MB-435): > 10 µM
- GI50 (UACC-62 melanoma): 3.47 µM
- TGI (UACC-62 melanoma): > 10 µM
- GI50 (HOP-62 NSCLC): 2820 nM
- TGI (HOP-62 NSCLC): > 10 µM
- GI50 (MALME-3M melanoma): 2060 nM
- TGI (MALME-3M melanoma): 8.67 µM
- GI50 (A549 NSCLC): 3.44 µM
- TGI (A549 NSCLC): > 10 µM
- GI50 (SN12C renal): 3.09 µM
- TGI (SN12C renal): > 10 µM
- GI50 (OVCAR-8 ovarian): 3.17 µM
- TGI (OVCAR-8 ovarian): > 10 µM
- GI50 (CCRF-CEM leukemia): 3.5 µM
- TGI (CCRF-CEM leukemia): > 10 µM
- GI50 (M14 melanoma): 3.65 µM
- TGI (M14 melanoma): > 10 µM
- GI50 (HT29 colon): 3.4 µM
- TGI (HT29 colon): > 10 µM
- GI50 (SF-539 CNS): 3.2 µM
- TGI (SF-539 CNS): > 10 µM
- GI50 (EKVX NSCLC): 3.1 µM
- TGI (EKVX NSCLC): > 10 µM
- GI50 (OVCAR-4 ovarian): 2370 nM
- TGI (OVCAR-4 ovarian): > 10 µM
- GI50 (KM12 colon): 3.25 µM
- TGI (KM12 colon): > 10 µM
- GI50 (HCT-15 colon): 3.05 µM
- TGI (HCT-15 colon): > 10 µM
- GI50 (SF-295 CNS): 2720 nM
- TGI (SF-295 CNS): > 10 µM
- GI50 (SK-MEL-2 melanoma): 3.04 µM
- TGI (SK-MEL-2 melanoma): > 10 µM
- GI50 (SNB-19 CNS): 3.4 µM
- TGI (SNB-19 CNS): > 10 µM
- GI50 (A498 renal): 1720 nM
- TGI (A498 renal): 6.4 µM
- GI50 (NCI/ADR-RES ovarian): 2900 nM
- TGI (NCI/ADR-RES ovarian): > 10 µM
- GI50 (RPMI-8226 leukemia): 1530 nM
- TGI (RPMI-8226 leukemia): 5.56 µM
- GI50 (PC-3 prostate): 3.15 µM
- TGI (PC-3 prostate): > 10 µM
- GI50 (HOP-92 NSCLC): 1700 nM
- TGI (HOP-92 NSCLC): 5.51 µM
- GI50 (SR leukemia): 3.65 µM
- TGI (SR leukemia): > 10 µM
- GI50 (HS 578T breast): 4.1 µM
- TGI (HS 578T breast): > 10 µM
- GI50 (NCI-H522 lung): 2610 nM
- TGI (NCI-H522 lung): > 10 µM
- GI50 (NCI-H226 lung): 4.01 µM
- TGI (NCI-H226 lung): > 10 µM
- GI50 (TK-10 renal): 3.27 µM
- TGI (TK-10 renal): > 10 µM
- GI50 (ACHN renal): 2600 nM
- TGI (ACHN renal): 8.83 µM
- GI50 (T-47D breast): 2650 nM
- TGI (T-47D breast): 8.43 µM
- GI50 (SNB-75 CNS): 2250 nM
- TGI (SNB-75 CNS): > 10 µM
- GI50 (IGROV1 ovarian): 4.46 µM
- TGI (IGROV1 ovarian): > 10 µM
- GI50 (K-562 leukemia): 3.7 µM
- TGI (K-562 leukemia): > 10 µM
- GI50 (SF-268 CNS): 3.71 µM
- TGI (SF-268 CNS): > 10 µM
- GI50 (SK-OV-3 ovarian): 2210 nM
- TGI (SK-OV-3 ovarian): 6.05 µM
- GI50 (NCI-H460 lung): 3.14 µM
- TGI (NCI-H460 lung): > 10 µM
- GI50 (LOX IMVI melanoma): 3.19 µM
- TGI (LOX IMVI melanoma): > 10 µM
- GI50 (MCF7 breast): 2820 nM
- TGI (MCF7 breast): > 10 µM
